Data taken from a compilation of properties of binary mixtures (doi:10.1007/s10953-014-0273-1).

Assay: xn = mol fraction of the nth substance listed
Settings: 101 kPa

CCCC[n+]1ccn(C)c1.F[B-](F)(F)F + CC#N
viscosity (303.15 K, x2 = 0.1001): 55.2 mPa·s
viscosity (303.15 K, x2 = 0.3011): 23.74 mPa·s
viscosity (303.15 K, x2 = 0.4013): 14.97 mPa·s
viscosity (303.15 K, x2 = 0.5): 9.25 mPa·s
viscosity (303.15 K, x2 = 0.6018): 5.34 mPa·s
viscosity (303.15 K, x2 = 0.7): 3 mPa·s
viscosity (303.15 K, x2 = 0.7997): 1.611 mPa·s
viscosity (303.15 K, x2 = 0.9001): 0.792 mPa·s
viscosity (313.15 K, x2 = 0): 53 mPa·s
viscosity (313.15 K, x2 = 0.1001): 36.5 mPa·s
viscosity (313.15 K, x2 = 0.2034): 24.4 mPa·s
viscosity (313.15 K, x2 = 0.3011): 16.9 mPa·s
viscosity (313.15 K, x2 = 0.5): 7.14 mPa·s
viscosity (313.15 K, x2 = 0.7): 2.522 mPa·s
viscosity (313.15 K, x2 = 0.7997): 1.389 mPa·s
viscosity (313.15 K, x2 = 0.9001): 0.707 mPa·s
viscosity (323.15 K, x2 = 0.1001): 25.36 mPa·s
viscosity (323.15 K, x2 = 0.2034): 17.76 mPa·s
viscosity (323.15 K, x2 = 0.4013): 8.57 mPa·s
viscosity (323.15 K, x2 = 0.6018): 3.58 mPa·s
viscosity (323.15 K, x2 = 0.7): 2.155 mPa·s
viscosity (323.15 K, x2 = 0.9001): 0.636 mPa·s
viscosity (333.15 K, x2 = 0): 25.01 mPa·s
viscosity (333.15 K, x2 = 0.1001): 18.43 mPa·s
viscosity (333.15 K, x2 = 0.2034): 13.23 mPa·s
viscosity (333.15 K, x2 = 0.3011): 9.83 mPa·s
viscosity (333.15 K, x2 = 0.4013): 6.83 mPa·s
viscosity (333.15 K, x2 = 0.5): 4.69 mPa·s
viscosity (333.15 K, x2 = 0.6018): 3.03 mPa·s
viscosity (333.15 K, x2 = 0.7): 1.877 mPa·s
viscosity (333.15 K, x2 = 0.7997): 1.103 mPa·s
viscosity (333.15 K, x2 = 0.9001): 0.579 mPa·s

CCCC[n+]1ccn(C)c1.F[B-](F)(F)F + CC(=O)N(C)C
viscosity (303.15 K, x2 = 0): 84.2 mPa·s
viscosity (303.15 K, x2 = 0.1006): 59 mPa·s
viscosity (303.15 K, x2 = 0.2004): 41.6 mPa·s
viscosity (303.15 K, x2 = 0.3005): 29 mPa·s
viscosity (303.15 K, x2 = 0.4011): 19.38 mPa·s
viscosity (303.15 K, x2 = 0.5002): 12.88 mPa·s
viscosity (303.15 K, x2 = 0.5998): 8.32 mPa·s
viscosity (303.15 K, x2 = 0.6996): 4.99 mPa·s
viscosity (303.15 K, x2 = 0.8002): 2.95 mPa·s
viscosity (303.15 K, x2 = 0.8999): 1.679 mPa·s
viscosity (313.15 K, x2 = 0): 53 mPa·s
viscosity (313.15 K, x2 = 0.1006): 38.5 mPa·s
viscosity (313.15 K, x2 = 0.2004): 28 mPa·s
viscosity (313.15 K, x2 = 0.3005): 20.16 mPa·s
viscosity (313.15 K, x2 = 0.4011): 14 mPa·s
viscosity (313.15 K, x2 = 0.5998): 6.32 mPa·s
viscosity (313.15 K, x2 = 0.6996): 4 mPa·s
viscosity (313.15 K, x2 = 0.8002): 2.44 mPa·s
viscosity (323.15 K, x2 = 0): 35.5 mPa·s
viscosity (323.15 K, x2 = 0.1006): 26.6 mPa·s
viscosity (323.15 K, x2 = 0.2004): 19.88 mPa·s
viscosity (323.15 K, x2 = 0.3005): 14.62 mPa·s
viscosity (323.15 K, x2 = 0.4011): 10.55 mPa·s
viscosity (323.15 K, x2 = 0.5002): 7.37 mPa·s
viscosity (323.15 K, x2 = 0.8002): 2.069 mPa·s
viscosity (333.15 K, x2 = 0): 25.01 mPa·s
viscosity (333.15 K, x2 = 0.1006): 19.27 mPa·s
viscosity (333.15 K, x2 = 0.2004): 14.76 mPa·s
viscosity (333.15 K, x2 = 0.3005): 11.08 mPa·s
viscosity (333.15 K, x2 = 0.4011): 8.15 mPa·s
viscosity (333.15 K, x2 = 0.5002): 5.87 mPa·s
viscosity (333.15 K, x2 = 0.5998): 4.09 mPa·s
viscosity (333.15 K, x2 = 0.6996): 2.77 mPa·s
viscosity (333.15 K, x2 = 0.8999): 1.1 mPa·s

CC#N + CCCC[n+]1ccn(C)c1.F[B-](F)(F)F
viscosity (303.15 K, x1 = 1): 0.329 mPa·s
viscosity (313.15 K, x1 = 1): 0.3 mPa·s
viscosity (323.15 K, x1 = 1): 0.276 mPa·s

CC(=O)N(C)C + CCCC[n+]1ccn(C)c1.F[B-](F)(F)F
viscosity (303.15 K, x1 = 1): 0.882 mPa·s
viscosity (323.15 K, x1 = 1): 0.69 mPa·s
viscosity (333.15 K, x1 = 1): 0.618 mPa·s

CN1CCCC1=O + CCCC[n+]1ccn(C)c1.F[B-](F)(F)F
viscosity (303.15 K, x1 = 1): 1.551 mPa·s

CO + CCCC[n+]1ccn(C)c1.F[B-](F)(F)F
viscosity (313.15 K, x1 = 1): 0.455 mPa·s
viscosity (323.15 K, x1 = 1): 0.401 mPa·s

CCCC[n+]1ccn(C)c1.F[B-](F)(F)F + CN1CCCC1=O
viscosity (303.15 K, x2 = 0.4999): 17.17 mPa·s
viscosity (303.15 K, x2 = 0.5998): 11.43 mPa·s
viscosity (303.15 K, x2 = 0.7001): 7.37 mPa·s
viscosity (303.15 K, x2 = 0.8003): 4.64 mPa·s
viscosity (303.15 K, x2 = 0.9001): 2.9 mPa·s
viscosity (313.15 K, x2 = 0): 53 mPa·s
viscosity (313.15 K, x2 = 0.0999): 41 mPa·s
viscosity (313.15 K, x2 = 0.2001): 31.6 mPa·s
viscosity (313.15 K, x2 = 0.3028): 23.77 mPa·s
viscosity (313.15 K, x2 = 0.4): 17.42 mPa·s
viscosity (313.15 K, x2 = 0.4999): 12.5 mPa·s
viscosity (313.15 K, x2 = 0.5998): 8.61 mPa·s
viscosity (313.15 K, x2 = 0.7001): 5.75 mPa·s
viscosity (313.15 K, x2 = 0.8003): 3.76 mPa·s
viscosity (313.15 K, x2 = 0.9001): 2.409 mPa·s
viscosity (323.15 K, x2 = 0.0999): 28.2 mPa·s
viscosity (323.15 K, x2 = 0.2001): 22.15 mPa·s
viscosity (323.15 K, x2 = 0.3028): 17.13 mPa·s
viscosity (323.15 K, x2 = 0.4): 13 mPa·s
viscosity (323.15 K, x2 = 0.4999): 9.47 mPa·s
viscosity (323.15 K, x2 = 0.5998): 6.73 mPa·s
viscosity (323.15 K, x2 = 0.8003): 3.13 mPa·s
viscosity (323.15 K, x2 = 0.9001): 1.991 mPa·s
viscosity (333.15 K, x2 = 0): 25.01 mPa·s
viscosity (333.15 K, x2 = 0.0999): 20.3 mPa·s
viscosity (333.15 K, x2 = 0.2001): 16.25 mPa·s
viscosity (333.15 K, x2 = 0.3028): 12.83 mPa·s
viscosity (333.15 K, x2 = 0.4): 9.93 mPa·s
viscosity (333.15 K, x2 = 0.4999): 7.46 mPa·s
viscosity (333.15 K, x2 = 0.5998): 5.37 mPa·s
viscosity (333.15 K, x2 = 0.7001): 3.79 mPa·s
viscosity (333.15 K, x2 = 0.8003): 2.66 mPa·s
viscosity (333.15 K, x2 = 0.9001): 1.722 mPa·s

CCCC[n+]1ccn(C)c1.F[B-](F)(F)F + CO
viscosity (303.15 K, x2 = 0): 84.2 mPa·s
viscosity (303.15 K, x2 = 0.1003): 54.2 mPa·s
viscosity (303.15 K, x2 = 0.2047): 34.6 mPa·s
viscosity (303.15 K, x2 = 0.2997): 23.54 mPa·s
viscosity (303.15 K, x2 = 0.3996): 15.02 mPa·s
viscosity (303.15 K, x2 = 0.504): 9.42 mPa·s
viscosity (303.15 K, x2 = 0.6992): 3.67 mPa·s
viscosity (303.15 K, x2 = 0.7997): 2.118 mPa·s
viscosity (303.15 K, x2 = 0.9001): 1.141 mPa·s
viscosity (313.15 K, x2 = 0.2997): 16.93 mPa·s
viscosity (313.15 K, x2 = 0.3996): 11.32 mPa·s
viscosity (313.15 K, x2 = 0.504): 7.4 mPa·s
viscosity (313.15 K, x2 = 0.6004): 4.86 mPa·s
viscosity (313.15 K, x2 = 0.6992): 3.03 mPa·s
viscosity (323.15 K, x2 = 0): 35.5 mPa·s
viscosity (323.15 K, x2 = 0.2047): 17.81 mPa·s
viscosity (323.15 K, x2 = 0.2997): 12.9 mPa·s
viscosity (323.15 K, x2 = 0.3996): 8.94 mPa·s
viscosity (323.15 K, x2 = 0.504): 6.02 mPa·s
viscosity (323.15 K, x2 = 0.6992): 2.537 mPa·s
viscosity (323.15 K, x2 = 0.7997): 1.527 mPa·s
viscosity (323.15 K, x2 = 0.9001): 0.895 mPa·s
viscosity (333.15 K, x2 = 0): 25.01 mPa·s
viscosity (333.15 K, x2 = 0.1003): 18.68 mPa·s
viscosity (333.15 K, x2 = 0.2047): 13.6 mPa·s
viscosity (333.15 K, x2 = 0.2997): 10.13 mPa·s
viscosity (333.15 K, x2 = 0.504): 5.03 mPa·s
viscosity (333.15 K, x2 = 0.6004): 3.42 mPa·s
viscosity (333.15 K, x2 = 0.6992): 2.195 mPa·s
viscosity (333.15 K, x2 = 0.7997): 1.337 mPa·s
viscosity (333.15 K, x2 = 0.9001): 0.765 mPa·s
